pIC50: −log10 of the molar value.
Legend:
[1] = tested on: MDA-MB-231 breast cancer cell lines; experiment: In vitro cell uptake of free doxorubicin (DOX) and DOX loaded HA polymers; type: cell-based; conditions: 20 μM, 1 h incubation, fluorescence microscopy
Procedure: In order to determine the pH altering effects of the hyaluronic acid-lipid modified polymers and cellular trafficking of drugs, a model fluorescent drug, doxorubicin, was encapsulated into the unmodified and modified HA polymers and tested on MDA-MB-231 breast cancer cell lines.
After 1 h of incubation, the cells were washed thrice with PBS and the uptake of DOX in the cells was observed using a fluorescence microscope.

[2] = of the free drug; cited from earlier work
SKOV3 cells = experiment: Cytotoxicity evaluation of drug loaded HA nanoparticles on ovarian cancer cells; type: cell-based; conditions: free drug
Source text: 9) Cytotoxicity Evaluation of Drug Loaded HA Nanoparticles on Ovarian Cancer Cells: […]

[3] = Homo sapiens, SK-OV-3, 48 hour timepoint

| Structure (SMILES) | uptake of DOX in the nucleus [1] | logP [2] | pIC50 (SKOV3 cells; 48 hour timepoint) | pIC50 (SKOV3 cells; [3]) |
| --- | --- | --- | --- | --- |
| COc1cccc2c1C(=O)c1c(O)c3c(c(O)c1C2=O)C[C@@](O)(C(=O)CO)C[C@@H]3O[C@H]1C[C@H](N)[C@H](O)[C@H](C)O1 [Doxorubicin] | much lower in the nucleus | −0.5 | 5.24 | – |
| CC(=O)O[C@H]1C(=O)[C@@]2(C)[C@H]([C@H](OC(=O)c3ccccc3)[C@]3(O)C[C@H](OC(=O)[C@H](O)[C@@H](NC(=O)c4ccccc4)c4ccccc4)C(C)=C1C3(C)C)[C@]1(OC(C)=O)CO[C@@H]1C[C@@H]2O [Paclitaxel] | – | – | – | 8.00 |
| CC[C@@]1(O)C(=O)OCc2c1cc1n(c2=O)Cc2cc3c(CN(C)C)c(O)ccc3nc2-1 [Topotecan] | – | 0.8 | – | 6.66 |
| CC[C@@]1(O)C(=O)OCc2c1cc1n(c2=O)Cc2cc3ccccc3nc2-1 [Camptothecin] | – | – | – | 6.09 |
| CC(=O)[C@]1(O)Cc2c(O)c3c(c(O)c2[C@@H](O[C@H]2C[C@H](N)[C@H](O)[C@H](C)O2)C1)C(=O)c1ccccc1C3=O [Idarubicin] | – | 0.2 | – | 5.42 |
| COc1cc([C@@H]2c3cc4c(cc3[C@@H](O[C@@H]3O[C@@H]5CO[C@@H](C)O[C@H]5[C@H](O)[C@H]3O)[C@H]3COC(=O)[C@H]23)OCO4)cc(OC)c1O [Etoposide] | – | – | – | 5.34 |

Reference: patent US20150250892A1, “BIODEGRADABLE POLYMERIC BUFFERS” (Northeastern University, priority 2012, published 2015)
